# Data as given in patent publication US8192962B2, “Processes for detecting toxic substances” (Daikin Industries, Ltd., priority 2001, dated 2012).
# Tested on: Metabolism protein genes
# Assay: DNA chip mRNA expression in yeast, metabolism protein genes (Table 7)
# Type: cell-based, Saccharomyces cerevisiae S288C
# In short: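 Chemical exposure: 2 h, log-phase S. cerevisiae S288C, YPD, 25° C., dose set to inhibit growth without death. Profiling: mRNA labeled by reverse transcription with Cy3- or Cy5-dUTP, hybridized to whole-genome array. Output: fluorescence ratio against untreated culture.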
structure (smiles),measurement,setting,value
"CCCCCCCCCCCCOS(=O)(=O)[O-].[Na+] [(18), sodium lauryl sulfate]",The level of expressed mRNA in the presence of chemical substance/The level of expressed mRNA in the absence of chemical substance,yeast gene YKL035W,1.9
same,level of expressed mRNA in the presence/in the absence of chemical substance,yeast gene YKL060C,1.7
same,The level of expressed mRNA in the presence of chemical substance/The level of expressed mRNA in the absence of chemical substance,yeast gene YKL091C,2.0
same,The level of expressed mRNA in the presence of chemical substance/The level of expressed mRNA in the absence of chemical substance,yeast gene YKL104C,1.1
same,level of expressed mRNA in the presence/in the absence of chemical substance,yeast gene YKL148C,1.0
same,The level of expressed mRNA in the presence of chemical substance/The level of expressed mRNA in the absence of chemical substance,yeast gene YKL152C,1.7
same,level of expressed mRNA in the presence/in the absence of chemical substance,yeast gene YKL157W,1.5
same,The level of expressed mRNA in the presence of chemical substance/The level of expressed mRNA in the absence of chemical substance,yeast gene YKL213C,1.6
same,The level of expressed mRNA in the presence of chemical substance/The level of expressed mRNA in the absence of chemical substance,yeast gene YKL215C,0.9
same,The level of expressed mRNA in the presence of chemical substance/The level of expressed mRNA in the absence of chemical substance,yeast gene YKR009C,2.5
same,level of expressed mRNA in the presence/in the absence of chemical substance,yeast gene YKR034W,1.0
same,The level of expressed mRNA in the presence of chemical substance/The level of expressed mRNA in the absence of chemical substance,yeast gene YKR039W,1.1
same,The level of expressed mRNA in the presence of chemical substance/The level of expressed mRNA in the absence of chemical substance,yeast gene YLL058W,1.3
same,level of expressed mRNA in the presence/in the absence of chemical substance,yeast gene YLR006C,1.0
same,level of expressed mRNA in the presence/in the absence of chemical substance,yeast gene YLR044C,0.9
same,level of expressed mRNA in the presence/in the absence of chemical substance,yeast gene YLR056W,1.1
same,level of expressed mRNA in the presence/in the absence of chemical substance,yeast gene YLR058C,0.8
same,level of expressed mRNA in the presence/in the absence of chemical substance,yeast gene YLR081W,0.9
same,level of expressed mRNA in the presence/in the absence of chemical substance,yeast gene YLR089C,1.3
same,The level of expressed mRNA in the presence of chemical substance/The level of expressed mRNA in the absence of chemical substance,yeast gene YLR180W,0.7
same,The level of expressed mRNA in the presence of chemical substance/The level of expressed mRNA in the absence of chemical substance,yeast gene YLR273C,1.0
same,level of expressed mRNA in the presence/in the absence of chemical substance,yeast gene YLR284C,8.1
same,The level of expressed mRNA in the presence of chemical substance/The level of expressed mRNA in the absence of chemical substance,yeast gene YLR299W,1.4
same,The level of expressed mRNA in the presence of chemical substance/The level of expressed mRNA in the absence of chemical substance,yeast gene YLR300W,0.5
same,level of expressed mRNA in the presence/in the absence of chemical substance,yeast gene YLR304C,0.7
same,The level of expressed mRNA in the presence of chemical substance/The level of expressed mRNA in the absence of chemical substance,yeast gene YLR307W,1.0
same,The level of expressed mRNA in the presence of chemical substance/The level of expressed mRNA in the absence of chemical substance,yeast gene YLR348C,1.0
same,level of expressed mRNA in the presence/in the absence of chemical substance,yeast gene YLR354C,1.5
same,level of expressed mRNA in the presence/in the absence of chemical substance,yeast gene YLR372W,0.6
same,level of expressed mRNA in the presence/in the absence of chemical substance,yeast gene YML022W,0.7
same,The level of expressed mRNA in the presence of chemical substance/The level of expressed mRNA in the absence of chemical substance,yeast gene YML054C,1.6
same,The level of expressed mRNA in the presence of chemical substance/The level of expressed mRNA in the absence of chemical substance,yeast gene YML070W,1.3
same,The level of expressed mRNA in the presence of chemical substance/The level of expressed mRNA in the absence of chemical substance,yeast gene YML100W,1.5
same,The level of expressed mRNA in the presence of chemical substance/The level of expressed mRNA in the absence of chemical substance,yeast gene YMR008C,1.9
same,level of expressed mRNA in the presence/in the absence of chemical substance,yeast gene YMR011W,1.6
same,level of expressed mRNA in the presence/in the absence of chemical substance,yeast gene YMR015C,1.0
same,The level of expressed mRNA in the presence of chemical substance/The level of expressed mRNA in the absence of chemical substance,yeast gene YMR020W,2.2
same,The level of expressed mRNA in the presence of chemical substance/The level of expressed mRNA in the absence of chemical substance,yeast gene YMR081C,3.0
same,level of expressed mRNA in the presence/in the absence of chemical substance,yeast gene YMR083W,1.1
same,The level of expressed mRNA in the presence of chemical substance/The level of expressed mRNA in the absence of chemical substance,yeast gene YMR105C,2.6
same,The level of expressed mRNA in the presence of chemical substance/The level of expressed mRNA in the absence of chemical substance,yeast gene YMR189W,0.8
same,level of expressed mRNA in the presence/in the absence of chemical substance,yeast gene YMR205C,0.5
same,level of expressed mRNA in the presence/in the absence of chemical substance,yeast gene YMR261C,1.1
same,The level of expressed mRNA in the presence of chemical substance/The level of expressed mRNA in the absence of chemical substance,yeast gene YMR271C,2.2
same,The level of expressed mRNA in the presence of chemical substance/The level of expressed mRNA in the absence of chemical substance,yeast gene YMR296C,0.7
same,level of expressed mRNA in the presence/in the absence of chemical substance,yeast gene YMR323W,0.6
same,The level of expressed mRNA in the presence of chemical substance/The level of expressed mRNA in the absence of chemical substance,yeast gene YNL012W,1.5
same,level of expressed mRNA in the presence/in the absence of chemical substance,yeast gene YNL025C,1.3
same,The level of expressed mRNA in the presence of chemical substance/The level of expressed mRNA in the absence of chemical substance,yeast gene YNL045W,1.1
same,The level of expressed mRNA in the presence of chemical substance/The level of expressed mRNA in the absence of chemical substance,yeast gene YNL104C,0.9
same,The level of expressed mRNA in the presence of chemical substance/The level of expressed mRNA in the absence of chemical substance,yeast gene YNL106C,0.9
same,The level of expressed mRNA in the presence of chemical substance/The level of expressed mRNA in the absence of chemical substance,yeast gene YNL169C,1.3
same,level of expressed mRNA in the presence/in the absence of chemical substance,yeast gene YNL192W,2.8
same,The level of expressed mRNA in the presence of chemical substance/The level of expressed mRNA in the absence of chemical substance,yeast gene YNL231C,4.0
same,The level of expressed mRNA in the presence of chemical substance/The level of expressed mRNA in the absence of chemical substance,yeast gene YNL322C,1.0
same,The level of expressed mRNA in the presence of chemical substance/The level of expressed mRNA in the absence of chemical substance,yeast gene YNL331C,1.3
same,The level of expressed mRNA in the presence of chemical substance/The level of expressed mRNA in the absence of chemical substance,yeast gene YNL332W,1.0
same,The level of expressed mRNA in the presence of chemical substance/The level of expressed mRNA in the absence of chemical substance,yeast gene YNR019W,2.0
same,The level of expressed mRNA in the presence of chemical substance/The level of expressed mRNA in the absence of chemical substance,yeast gene YNR033W,1.1
same,The level of expressed mRNA in the presence of chemical substance/The level of expressed mRNA in the absence of chemical substance,yeast gene YNR059W,2.2
same,The level of expressed mRNA in the presence of chemical substance/The level of expressed mRNA in the absence of chemical substance,yeast gene YOL058W,0.8
same,level of expressed mRNA in the presence/in the absence of chemical substance,yeast gene YOL086C,1.3
same,level of expressed mRNA in the presence/in the absence of chemical substance,yeast gene YOL108C,2.7
same,level of expressed mRNA in the presence/in the absence of chemical substance,yeast gene YOL116W,1.4
same,The level of expressed mRNA in the presence of chemical substance/The level of expressed mRNA in the absence of chemical substance,yeast gene YOL126C,2.4
same,The level of expressed mRNA in the presence of chemical substance/The level of expressed mRNA in the absence of chemical substance,yeast gene YOL153C,1.7
same,level of expressed mRNA in the presence/in the absence of chemical substance,yeast gene YOL156W,0.9
same,The level of expressed mRNA in the presence of chemical substance/The level of expressed mRNA in the absence of chemical substance,yeast gene YOL165C,1.0
same,level of expressed mRNA in the presence/in the absence of chemical substance,yeast gene YOR002W,1.1
same,level of expressed mRNA in the presence/in the absence of chemical substance,yeast gene YOR085W,0.9
same,The level of expressed mRNA in the presence of chemical substance/The level of expressed mRNA in the absence of chemical substance,yeast gene YOR099W,2.3
same,level of expressed mRNA in the presence/in the absence of chemical substance,yeast gene YOR103C,1.5
same,level of expressed mRNA in the presence/in the absence of chemical substance,yeast gene YOR108W,1.1
same,level of expressed mRNA in the presence/in the absence of chemical substance,yeast gene YOR128C,1.2
same,The level of expressed mRNA in the presence of chemical substance/The level of expressed mRNA in the absence of chemical substance,yeast gene YOR130C,1.1
same,level of expressed mRNA in the presence/in the absence of chemical substance,yeast gene YOR142W,1.0
same,The level of expressed mRNA in the presence of chemical substance/The level of expressed mRNA in the absence of chemical substance,yeast gene YOR153W,3.1
same,level of expressed mRNA in the presence/in the absence of chemical substance,yeast gene YOR176W,2.1
same,level of expressed mRNA in the presence/in the absence of chemical substance,yeast gene YOR178C,1.5
same,level of expressed mRNA in the presence/in the absence of chemical substance,yeast gene YOR251C,1.3
same,The level of expressed mRNA in the presence of chemical substance/The level of expressed mRNA in the absence of chemical substance,yeast gene YOR336W,1.0
same,The level of expressed mRNA in the presence of chemical substance/The level of expressed mRNA in the absence of chemical substance,yeast gene YOR347C,1.3
same,level of expressed mRNA in the presence/in the absence of chemical substance,yeast gene YOR348C,0.9
same,The level of expressed mRNA in the presence of chemical substance/The level of expressed mRNA in the absence of chemical substance,yeast gene YPL017C,0.8
same,level of expressed mRNA in the presence/in the absence of chemical substance,yeast gene YPL028W,1.8
same,level of expressed mRNA in the presence/in the absence of chemical substance,yeast gene YPL057C,2.0
same,level of expressed mRNA in the presence/in the absence of chemical substance,yeast gene YPL135W,1.7
same,The level of expressed mRNA in the presence of chemical substance/The level of expressed mRNA in the absence of chemical substance,yeast gene YPL147W,3.6
same,level of expressed mRNA in the presence/in the absence of chemical substance,yeast gene YPL148C,1.1
same,The level of expressed mRNA in the presence of chemical substance/The level of expressed mRNA in the absence of chemical substance,yeast gene YPR026W,1.3
same,level of expressed mRNA in the presence/in the absence of chemical substance,yeast gene YPR113W,1.9
same,level of expressed mRNA in the presence/in the absence of chemical substance,yeast gene YPR165W,2.7
same,The level of expressed mRNA in the presence of chemical substance/The level of expressed mRNA in the absence of chemical substance,yeast gene YPR167C,1.4
same,level of expressed mRNA in the presence/in the absence of chemical substance,yeast gene YPR183W,1.0
